Data from paper PMC7822874, “Chemoprotective antimalarials identified through quantitative high-throughput screening of Plasmodium blood and liver stage parasites” (Scientific Reports, 2021).
Where two headings read alike, the source gives them in different places.

How the values were obtained:
[1] = tested on: Plasmodium falciparum Dd2 asexual blood stage parasites; test: microbe, parasite or virus in culture; parameters: species or system Plasmodium falciparum Dd2 in human erythrocytes; single determination (one 11-point concentration-response curve); details: Plasmodium falciparum, DD2, Erythrocyte, 72 h
HepG2 = details: human, hepg2 cells, 48 h
in vitro = details: human, hepg2 cells

SMILES	AC50 ([1]; read-out: AC50)	Log AC50 (M) (HepG2)	CC50 at 48 h (in vitro)	AC50 [1]
CCCN1CCN(CCCNC(=O)c2ccc3c(c2)sc2nc(-c4ccc(OCC)cc4)cn23)CC1 [NCGC00113254-01]	4.22 µM	-4.6143 M	24.3 µM	–
CCCCN(C)CCCNC(=O)Cn1ncc2c3ccccc3n(Cc3cc(C)ccc3C)c2c1=O [NCGC00114267-01]	0.75 µM	-4.4643 M	34.3 µM	–
CCCCN1C(=O)c2[nH]nc(-c3ccccc3O)c2C1c1ccc(OCc2ccccc2)cc1 (stereo not drawn) [NCGC00115502-01]	5.96 µM	-4.3643 M	43.2 µM	–
CCC1CCCCN1CCCNC(=O)c1ccc2c(c1)sc1nc(-c3ccc(F)cc3)cn12 (stereo not drawn) [NCGC00121679-01]	1.5 µM	-4.4643 M	34.3 µM	–
CC1CCCCN1CCCNC(=O)c1ccc2c(c1)sc1nc(-c3ccc(F)cc3)cn12 (stereo not drawn) [NCGC00121681-01]	1.88 µM	-4.5143 M	30.6 µM	–
Cc1cc(N2CCN(C)CC2)nc2ccc(NC(=O)Nc3cccc(Cl)c3)cc12 [NCGC00126479-01]	4.22 µM	-4.3643 M	43.2 µM	–
CCOc1ccccc1NC(=O)Nc1ccc2nc(N3CCN(C)CC3)cc(C)c2c1 [NCGC00126491-01]	1.33 µM	-4.3643 M	43.2 µM	–
CC(C)(C)OC(=O)N1CCC(c2c(C(=O)NCCN3CCC(Cc4ccccc4)CC3)cnn2-c2ccc(F)cc2)CC1 [NCGC00126694-01]	5.31 µM	-4.3643 M	43.2 µM	–
Cc1ccc(C)c(N2CCN(CCCNC(=O)c3cnn(-c4ccc(F)cc4)c3C3CCN(C(=O)OC(C)(C)C)CC3)CC2)c1 [NCGC00126698-01]	2.66 µM	-4.3643 M	43.2 µM	–
Cc1ccc(C)c(N2CCN(CCCNC(=O)c3cnn(-c4cccc(Cl)c4)c3C3CCN(C(=O)OC(C)(C)C)CC3)CC2)c1 [NCGC00126914-01]	8.41 µM	-4.3643 M	43.2 µM	–
COc1ccc(C2=CC(c3ccc(F)cc3)n3ncc(C(=O)Nc4ccc(C)cc4)c3N2)cc1 (stereo not drawn) [NCGC00127228-01]	2.37 µM	-4.5143 M	30.6 µM	–
CCOc1ccc(C2=C(C(C)=O)Sc3nnc(C)n3N2C(C)=O)cc1 [NCGC00137200-01]	5.31 µM	-4.3643 M	43.2 µM	–
CC(=O)C1=C(c2ccc(Cl)c(Cl)c2)N(C(C)=O)n2cnnc2S1 [NCGC00137238-01]	3.76 µM	-4.3643 M	43.2 µM	–
CCCCN(CC)CCCNC(=O)c1ccc2c(c1)N(Cc1ccc(C)cc1)C(=O)c1ccccc1S2 [NCGC00139764-01]	1.88 µM	-4.3643 M	43.2 µM	–
CN1CCC(Nc2ncc3ncnc(Nc4ccc(F)c(Cl)c4)c3n2)CC1.Cl.Cl [NCGC00161422-01]	10.6 µM	-4.7643 M	17.2 µM	–
COC(=O)C1=C(C)NC(C)=C(C(=O)OCCCN2CCC(c3ccccc3)(c3ccccc3)CC2)C1c1cccc([N+](=O)[O-])c1.Cl (stereo not drawn) [NCGC00163135-01]	–	-4.3643 M	43.2 µM	2.99 µM
COC(=O)C1=C(C)NC(C)=C(C(=O)OC(C)(C)CN(C)CCC(c2ccccc2)c2ccccc2)C1c1cccc([N+](=O)[O-])c1.Cl (stereo not drawn) [NCGC00167492-01]	2.99 µM	-4.6143 M	24.3 µM	–
COc1cc2c(Nc3ccc(Br)cc3F)ncnc2cc1OCC1CCN(C)CC1 [NCGC00167513-01]	5.96 µM	-4.5643 M	27.3 µM	–

SMILES	AC50 ([1]; read-out: AC50)	Log AC50 (M) (HepG2)	CC50 at 48 h (in vitro)	AC50 [1]
COc1ccccc1-c1ccc(CN2CCCC(c3nc4ccc(F)cc4c(=O)[nH]3)C2)cc1 (stereo not drawn) [NCGC00377223-02]	8.41 µM	-4.3643 M	43.2 µM	–
CC(C)(C)c1ccc(NC(=O)OC[C@H]2C[C@@H]3CCN2C[C@@H]3c2cc(C3CCCC3)nc(-c3ccncc3)n2)cc1 [NCGC00391636-01]	2.11 µM	-4.3643 M	43.2 µM	–
Cc1nc(-c2ccccc2)cc([C@H]2CN3CC[C@H]2C[C@@H]3CN(Cc2ccco2)Cc2ccco2)n1 [NCGC00392555-01]	2.99 µM	-4.5143 M	30.6 µM	–
CCC(CC)c1cc([C@H]2CN3CC[C@H]2C[C@@H]3COC(=O)Nc2ccc(C(C)(C)C)cc2)nc(-c2ccncc2)n1 [NCGC00394559-01]	2.11 µM	-4.3643 M	43.2 µM	–
O[C@H]1[C@H](NCC2CCCCC2)[C@H]2CO[C@H](O2)[C@@H]1N1CCC(Cc2ccccc2)CC1 [NCGC00394729-01]	1.37 µM	-4.3028 M	49.8 µM	–
O=C(Nc1ccc([C@H]2OCC(=O)N(Cc3ccncc3)[C@@H]2CO)cc1)c1ccc(C(F)(F)F)cc1 [NCGC00395114-01]	16.8 µM	-4.5643 M	27.3 µM	–
CC(C)C[C@@H]1N[C@H](C(=O)NC(C)C)Cc2cn(Cc3ccncc3)c3cccc1c23 [NCGC00395386-01]	17.2 µM	-4.3528 M	44.4 µM	–
CC(C)(C)c1ccc(-c2cc(C[C@H]3CNCC[C@H]3CC(=O)N3CCN(c4ccccn4)CC3)no2)cc1 [NCGC00400637-01]	15 µM	-4.4143 M	38.5 µM	–
COc1cccc(Nc2ccc3c(n2)C(C)(C(=O)NC2CCN(C)CC2)CN(C)C3)c1 (stereo not drawn) [NCGC00414505-01]	17.2 µM	-4.2528 M	55.9 µM	–
COc1cc2c(cc1OCc1ccccc1)N(C(=O)c1cc3ccccc3n1C)CC21CCN(C)CC1 [NCGC00419848-01]	2.11 µM	-4.3643 M	43.2 µM	–
Cc1ccc([S+](=O)([O-])NC[C@H]2C[C@@H]3CC[N@]2C[C@@H]3CN2CCc3ccccc32)cc1 [NCGC00421178-01]	–	-4.2528 M	55.9 µM	13.7 µM
COc1ccc(NC(=O)OC[C@H]2C[C@@H]3CCN2C[C@@H]3c2cc(C3CCCC3)nc(-c3ccncc3)n2)cc1 [NCGC00421346-01]	4.22 µM	-4.3643 M	43.2 µM	–
CC1=C[C@@H](CNCc2cccnc2)[C@H](C(C)C)C[C@H]1Cc1nnc(-c2ccc(N(C)C)cc2)o1 [NCGC00421481-01]	5.31 µM	-4.4643 M	34.3 µM	–
CCCC1=Nc2cc(C(=O)NCCCN3CCCCC3CC)ccc2Sc2ccc(C)cc21 (stereo not drawn) [NCGC00424661-01]	9.44 µM	-4.3643 M	43.2 µM	–
Cc1cccc(CN2CCCC(O)(CNCc3ncccc3C)C2=O)c1 (stereo not drawn) [NCGC00429062-01]	16.8 µM	-4.4143 M	38.5 µM	–
CCN1C(=O)C2(CCN([S+](=O)([O-])c3ccc(Cl)cc3C)CC2)c2ccccc21 [NCGC00435870-01]	5.31 µM	-4.4643 M	34.3 µM	–
CC(C)c1nc(-c2ccc(OC3CCN(C(=O)CCc4nc5ccccc5[nH]4)C3)cc2)no1 (stereo not drawn) [NCGC00441007-01]	15 µM	-4.5643 M	27.3 µM	–
